Measured values: patent US20230263725A1, “INTRANASAL ADMINISTRATION OF AN ANTIOXIDANT COMPOUND FOR TREATING CORONAVIRUS INFECTION” (priority 2020, published 2023)
Values joined by “and” are separate entries in the source; they are usually repeats but may differ in a detail not shown here. Equal values may be shown once. Read-outs that look alike come from different tables or passages of the source.

Key:
[1] = cited from earlier work; for F total meas (total bioavailability experimentally determined): naltrexone 4 mg
[2] = intranasal, with versus without DDM
SARS-CoV-2 = assay: Oral NAC in mild or moderate COVID-19, open label controlled study NCT04419025; format: in vivo
[3] = Safety and tolerability of intranasal NAC in healthy subjects
GSH levels in the brain = details: NAC delivered intranasally and orally; cited from earlier work
[4] = tested on: brain glutathione (GSH/Cr); assay: Intranasal NAC, brain glutathione by MEGA PRESS MR Spectroscopy in healthy subjects; format: in vivo, humans
Protocol: In this example, intranasal administration of NAC to healthy humans was studied.
The study consisted of two study periods each involving 3 subjects and was designed to provide rapid proof-of-concept data on the ability of intranasal NAC to increase brain GSH levels. In Study Period 1, three right-handed male subjects, and 58 were evaluated. After informed consent and completion of a medical history questionnaire, each subject participated in multiple MR Spectroscopy sessions. On the first day, each subject was scanned once. A T1-weighted thin slice data set was acquired for subsequent positioning of a MR spectroscopy voxel (5×5×3 cm3) positioned with its posterior edge covering the genu of the corpus callosum, extending anteriorly into the frontal lobes.
GSH levels were determined within the volume of interest using […] double-editing for the cysteinyl β-CH2 residue of GSH. Spectral editing was accomplished by refocusing GSH J-evolution during every other acquisition (ON), using a Gaussian pulse centered at the cysteinyl α-CH resonance of GSH at 4.56 p.p.m. During the alternate acquisitions (OFF), the pulse was applied symmetrically about the water peak. The difference-edited GSH spectrum was generated by subtraction of the OFF and ON spectra. Data analysis was accomplished using the GANNET software package which provided information on the GSH/Cr ratio. The Day 1 scan served as an initial baseline.
On Day 2, another baseline evaluation was performed, along with two additional scans at 1-hour and 2-hours post administration of intranasal NAC. The timing of Day 2 scans was shifted relative to Day 1, such that the time-of-day for the Day 1 baseline scan matched the time-of-day of the Day 2, 1-hour post NAC scan. This is illustrated in FIG. 2 and was done to provide control for potential circadian rhythm effects in GSH levels. In FIG. 2, green bars show times of spectroscopic imaging. The time-of-day for the baseline MRS scan on Day 1 matches the time-of-day for the 1-hour post-NAC scan on Day 2.
Solution was delivered as six alternating bursts of 0.33 ml to each nostril over the course of 5-10 minutes.
In Study Period 2, three additional right-handed male subjects, and 31 were studied. MRS data were collected on a single day, with baseline, 1 hr, 2 hrs, and 4 hrs post-NAC evaluations (as illustrated in FIG. 5). The same spectroscopic methods as used in period 1 were employed. However, a multi-dose pump intranasal delivery device was used.

[5] = tested on: A/H1N1 Singapore 6/86 influenza virus; details: oral NAC over 6 months; control 79%; cited from earlier work
[6] = intranasal + DDM, sumatriptan 10 mg
[7] = intranasal, without DDM, sumatriptan 20 mg
[8] = study period 1, intranasal 20% MUCOMYST, 1 ml per nostril, mucosal atomization device, subject (male)
[9] = study period 2, intranasal, multi-dose pump, (male)

## CNS(=O)(=O)Cc1ccc2[nH]cc(CCN(C)C)c2c1 [Sumatriptan]
[1]; [6]
  F total meas (total bioavailability experimentally determined): 69%
[1]; [7]
  F total meas (total bioavailability experimentally determined): 34%
[2]
  increase in bioavailability when dosed together with DDM: 35%

## O=C1CC[C@@]2(O)[C@H]3Cc4ccc(O)c5c4[C@@]2(CCN3CC2CC2)[C@H]1O5 [Naltrexone]
[1]; [6]
  F total meas (total bioavailability experimentally determined): 95%
[1]; [7]
  F total meas (total bioavailability experimentally determined): 65%

## CC(=O)N[C@@H](CS)C(=O)O [NAC, N-acetyl cysteine]
SARS-CoV-2; hospitalized group, oral NAC
  fewer days in the hospital versus no NAC: 1 days
SARS-CoV-2; hospitalized group, oral NAC 25 mg/kg every 4 hours, 6 days without NAC
  hospitalization days: 5 days
SARS-CoV-2; hospitalized group, oral NAC, group without NAC had 2-3 deaths
  deaths: no deaths
SARS-CoV-2; outpatients
  increase in hospitalization needed for those who did not receive oral NAC: ~5 x
SARS-CoV-2; outpatients, mild cases, oral NAC 2400 mg then 1200 mg 2x/day for 2 weeks, 15% without NAC
  outpatients needing hospitalization: 3-4%
[3]; intranasal NAC
  changes in heart-rate, breathing rate, O2 saturation or blood pressure: No significant changes
  duration of transient nausea: < 5 min
  subjects voicing complaints about the NAC odor: 5 of 6
[3]; intranasal NAC, 6 subjects
  adverse events: no adverse events were reported
  subjects reporting very mild transient nausea: 2
[3]; mucosal atomizer, study period 1
  complaints of NAC fluid into the throat: all three subjects complained
[3]; multi-dose pump, study period 2
  complaints of NAC fluid into the throat: not found
[1]; oral dosing
  bioavailability of oral NAC: 10% and 9-10%
GSH levels in the brain
  effect on GSH levels in the brain: increase in GSH levels in the brain
[4]; all subjects, FIG. 8
  time of peak levels: 1 to 2 h
[4]; intranasal NAC
  effect on brain GSH as measured by MR spectroscopy: statistically significant increase
[4]; intranasal NAC, 4 hours, FIG. 8
  brain GSH levels above baseline at 4 hours: ~ 35%
[4]; intranasal NAC, combined across all subjects, FIG. 8
  increase in brain GSH levels (average percent change in GSH/Cr): > 50%
[4]; study period 1
  time for which the increase in brain GSH/Cr level is sustained post-administration: at least 2 hours
[4]; [8]
  Day 2, 1-hour post-NAC GSH/Cr: 0.059 and 0.037 and 0.031
  Day 2, 2-hours post-NAC GSH/Cr: 0.052 and 0.035 and 0.048
[4]; study period 2
  time for which increased brain GSH/Cr levels are maintained: at least 4 hrs
[4]; [9]
  1-hr post-NAC GSH/Cr: 0.034 and 0.053 and 0.050
  2-hours post-NAC GSH/Cr: 0.039 and 0.042 and 0.045
  4 hrs-hours post-NAC GSH/Cr: 0.036 and 0.041 and 0.042
[5]
  developed a symptomatic form of the A/H1N1 Singapore 6/86 influenza virus: 25%
